The assay concerns the target T1, Ectonucleotide pyrophosphatase/phosphodiesterase family member 1 (Homo sapiens, UniProt P22413).
T1 sequence (P22413 whole entry): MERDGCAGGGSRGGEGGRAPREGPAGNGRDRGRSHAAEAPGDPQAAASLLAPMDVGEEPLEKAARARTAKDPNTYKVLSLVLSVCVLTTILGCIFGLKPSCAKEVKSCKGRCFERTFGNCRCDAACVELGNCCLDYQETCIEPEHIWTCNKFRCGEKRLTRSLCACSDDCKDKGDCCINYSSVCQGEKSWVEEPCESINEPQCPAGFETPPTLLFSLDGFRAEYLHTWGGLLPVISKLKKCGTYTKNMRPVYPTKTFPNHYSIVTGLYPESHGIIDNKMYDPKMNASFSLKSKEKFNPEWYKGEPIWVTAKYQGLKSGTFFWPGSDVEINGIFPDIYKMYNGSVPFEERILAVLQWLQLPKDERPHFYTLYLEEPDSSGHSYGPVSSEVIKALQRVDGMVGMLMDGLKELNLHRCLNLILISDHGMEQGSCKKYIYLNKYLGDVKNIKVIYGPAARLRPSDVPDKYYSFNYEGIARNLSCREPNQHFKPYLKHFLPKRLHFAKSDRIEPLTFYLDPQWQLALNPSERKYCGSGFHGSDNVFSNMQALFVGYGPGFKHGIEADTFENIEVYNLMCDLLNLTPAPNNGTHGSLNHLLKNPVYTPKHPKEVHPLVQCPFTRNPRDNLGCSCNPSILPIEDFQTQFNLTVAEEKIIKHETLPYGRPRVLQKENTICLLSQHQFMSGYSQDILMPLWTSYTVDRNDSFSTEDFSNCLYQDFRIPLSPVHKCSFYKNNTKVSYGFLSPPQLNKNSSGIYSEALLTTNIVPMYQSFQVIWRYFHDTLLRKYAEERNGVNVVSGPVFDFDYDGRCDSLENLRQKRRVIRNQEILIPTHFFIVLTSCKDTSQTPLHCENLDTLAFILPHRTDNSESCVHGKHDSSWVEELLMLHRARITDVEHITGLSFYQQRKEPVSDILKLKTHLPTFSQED
As to the kind of experiment: ENPP1 Inhibitory Activity Assay.

On to `COc1ccc2c(Oc3ccc(C(C(=O)NO)C(C)C)cc3)ccnc2n1` (configuration not stated) [US20240383893, Compound 130], for which inhibition was half-maximal at 6.9 nM (IC50).
With `COc1ccc2c(Oc3ccc(C(C)(C(=O)NO)C(C)C)cc3)ccnc2n1` (configuration not stated) [US20240383893, Compound 165] the figure was 23 nM.

(Values after BindingDB's records for patent US20240383893 (Haihe Biopharma, 2024).)
